Results published in ChEMBL document CHEMBL4229491, “Design, synthesis and evaluation of novel N-phenylbutanamide derivatives as KCNQ openers for the treatment of epilepsy” (Bioorg Med Chem Lett, 2018).

How the values were obtained:
[1] = target: T1, Potassium voltage-gated channel subfamily KQT member 2 (Homo sapiens, UniProt O43526); assay: Channel opening activity at KCNQ2 (unknown origin) expressed in CHO cells after 10 mins by atomic absorption spectrophotometry-based Rb+ flow assay; format: cell-based
T1 sequence (O43526 whole entry): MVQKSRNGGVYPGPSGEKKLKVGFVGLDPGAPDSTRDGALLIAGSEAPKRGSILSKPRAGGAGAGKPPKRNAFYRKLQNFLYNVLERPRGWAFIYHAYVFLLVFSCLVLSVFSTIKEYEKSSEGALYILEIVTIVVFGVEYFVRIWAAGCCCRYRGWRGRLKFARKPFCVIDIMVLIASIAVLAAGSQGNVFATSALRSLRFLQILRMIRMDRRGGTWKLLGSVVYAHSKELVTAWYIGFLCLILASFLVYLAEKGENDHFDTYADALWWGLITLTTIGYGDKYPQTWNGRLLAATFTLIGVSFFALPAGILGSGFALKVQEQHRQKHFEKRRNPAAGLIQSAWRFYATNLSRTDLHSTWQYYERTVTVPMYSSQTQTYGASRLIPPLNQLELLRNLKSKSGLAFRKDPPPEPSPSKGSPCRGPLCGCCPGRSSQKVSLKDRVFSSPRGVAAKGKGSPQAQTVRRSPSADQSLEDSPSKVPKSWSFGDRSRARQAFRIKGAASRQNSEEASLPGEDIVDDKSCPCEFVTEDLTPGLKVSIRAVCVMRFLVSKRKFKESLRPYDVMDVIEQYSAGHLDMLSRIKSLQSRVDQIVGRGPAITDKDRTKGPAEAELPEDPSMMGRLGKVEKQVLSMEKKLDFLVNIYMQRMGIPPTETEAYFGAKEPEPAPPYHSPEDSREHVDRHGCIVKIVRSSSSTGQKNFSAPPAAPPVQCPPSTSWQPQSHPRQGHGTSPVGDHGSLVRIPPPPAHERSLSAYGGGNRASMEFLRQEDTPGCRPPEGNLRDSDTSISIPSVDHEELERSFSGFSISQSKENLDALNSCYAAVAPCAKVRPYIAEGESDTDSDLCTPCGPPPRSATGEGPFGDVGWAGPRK

[2] = target: T1, Potassium voltage-gated channel subfamily KQT member 2; assay: Channel opening activity at KCNQ2 (unknown origin) expressed in CHO cells assessed as change in half activation potential at 10 uM by electrophysiological patch-clamp test; format: cell-based
[3] = target: T1, Potassium voltage-gated channel subfamily KQT member 2; assay: Channel opening activity at KCNQ2 (unknown origin) expressed in CHO cells at 10 uM incubated for 20 mins in dark measured every 2 secs for 10 secs by fluorescence-based thallium influx assay relative to control; format: cell-based
[4] = target: T1, Potassium voltage-gated channel subfamily KQT member 2; assay: Channel opening activity at KCNQ2 (unknown origin) expressed in CHO cells assessed as conductivity (I/I0 ratio) at 10 uM by electrophysiological patch-clamp test; format: cell-based
[5] = tested on: Rattus norvegicus; assay: Neurotoxicity in Sprague-Dawley rat at 25 mg/kg, ip measured after 30 mins by rotating-rod test; format: toxicity, organism-based; details: in vivo, 0.5 h
[6] = tested on: Mus musculus; assay: Anticonvulsant activity in maximal electroshock induced Kunming mouse assessed as epilepsy incidence at 25 mg/kg, ip measured after 30 mins; format: functional
[7] = Drug uptake in Kunming mouse brain at 15 mg/kg, ig measured after 30 mins by LC/MS/MS analysis; format: ADME, organism-based; details: po, read-out: Drug uptake
[8] = Drug uptake in Kunming mouse brain at 15 mg/kg, ig measured after 2 hrs by LC/MS/MS analysis; format: ADME, organism-based; details: po, read-out: Drug uptake
[9] = Ratio of drug uptake in Kunming mouse brain to plasma at 1.5 mg/kg, iv measured after 30 mins by LC/MS/MS analysis; format: ADME, organism-based; details: read-out: BPR
[10] = Drug uptake in Kunming mouse brain at 1.5 mg/kg, iv measured after 2 hrs by LC/MS/MS analysis; format: ADME, organism-based; details: read-out: Drug uptake
[11] = Drug uptake in Kunming mouse plasma at 1.5 mg/kg, iv measured after 2 hrs by LC/MS/MS analysis; format: ADME, organism-based
[12] = AUClast in Sprague-Dawley rat at 1 mg/kg, iv by LC/MS/MS analysis; format: ADME, organism-based; parameters: dose 1 mg/kg, route intravenous, time 0 - last; details: in vivo
[13] = Drug uptake in Kunming mouse plasma at 15 mg/kg, ig measured after 5 mins by LC/MS/MS analysis; format: ADME, organism-based; details: po
[14] = Drug uptake in Kunming mouse plasma at 1.5 mg/kg, iv measured after 5 mins by LC/MS/MS analysis; format: ADME, organism-based
[15] = tested on: Rattus norvegicus; assay: Neurotoxicity in Sprague-Dawley rat at 0.3 mg/kg, ip measured after 30 mins by rotating-rod test; format: toxicity, organism-based; details: in vivo, 0.5 h
[16] = Ratio of drug uptake in Kunming mouse brain to plasma at 1.5 mg/kg, iv measured after 5 mins by LC/MS/MS analysis; format: ADME, organism-based; details: read-out: BPR
[17] = tested on: Rattus norvegicus; assay: Neurotoxicity in Sprague-Dawley rat at 1 mg/kg, ip measured after 30 mins by rotating-rod test; format: toxicity, organism-based; details: in vivo, 0.5 h
[18] = tested on: Mus musculus; assay: Anticonvulsant activity in maximal electroshock induced Kunming mouse assessed as epilepsy incidence at 0.3 mg/kg, ip measured after 30 mins; format: functional
[19] = tested on: Rattus norvegicus; assay: Neurotoxicity in Sprague-Dawley rat at 3 mg/kg, ip measured after 30 mins by rotating-rod test; format: toxicity, organism-based; details: in vivo, 0.5 h
[20] = Ratio of drug uptake in Kunming mouse brain to plasma at 15 mg/kg, ig measured after 5 mins by LC/MS/MS analysis; format: ADME, organism-based; details: po, read-out: BPR
[21] = Tmax in Sprague-Dawley rat at 1 mg/kg, iv by LC/MS/MS analysis; format: ADME, organism-based; details: in vivo
[22] = Half life in Sprague-Dawley rat at 1 mg/kg, iv by LC/MS/MS analysis; format: ADME, organism-based; details: in vivo
[23] = Drug uptake in Kunming mouse brain at 1.5 mg/kg, iv measured after 30 mins by LC/MS/MS analysis; format: ADME, organism-based; details: read-out: Drug uptake
[24] = MRTlast in Sprague-Dawley rat at 1 mg/kg, iv by LC/MS/MS analysis; format: ADME, organism-based; details: in vivo
[25] = Apparent volume of distribution in Sprague-Dawley rat at 1 mg/kg, iv by LC/MS/MS analysis; format: ADME, organism-based; details: in vivo, read-out: Vz
[26] = Drug uptake in Kunming mouse plasma at 15 mg/kg, ig measured after 2 hrs by LC/MS/MS analysis; format: ADME, organism-based; details: po
[27] = Clearance in Sprague-Dawley rat at 1 mg/kg, iv by LC/MS/MS analysis; format: ADME, organism-based; details: in vivo
[28] = Ratio of drug uptake in Kunming mouse brain to plasma at 15 mg/kg, ig measured after 30 mins by LC/MS/MS analysis; format: ADME, organism-based; details: po, read-out: BPR
[29] = Drug uptake in Kunming mouse plasma at 15 mg/kg, ig measured after 30 mins by LC/MS/MS analysis; format: ADME, organism-based; details: po
[30] = Drug uptake in Kunming mouse plasma at 1.5 mg/kg, iv measured after 30 mins by LC/MS/MS analysis; format: ADME, organism-based
[31] = tested on: Rattus norvegicus; assay: Neurotoxicity in Sprague-Dawley rat at 5 mg/kg, ip measured after 30 mins by rotating-rod test; format: toxicity, organism-based; details: in vivo, 0.5 h
[32] = Drug uptake in Kunming mouse brain at 1.5 mg/kg, iv measured after 5 mins by LC/MS/MS analysis; format: ADME, organism-based; details: read-out: Drug uptake
[33] = Ratio of drug uptake in Kunming mouse brain to plasma at 15 mg/kg, ig measured after 2 hrs by LC/MS/MS analysis; format: ADME, organism-based; details: po, read-out: BPR
[34] = tested on: Mus musculus; assay: Anticonvulsant activity in maximal electroshock induced Kunming mouse assessed as epilepsy incidence at 3 mg/kg, ip measured after 30 mins; format: functional
[35] = tested on: Mus musculus; assay: Anticonvulsant activity in maximal electroshock induced Kunming mouse assessed as epilepsy incidence at 1 mg/kg, ip measured after 30 mins; format: functional
[36] = tested on: Mus musculus; assay: Anticonvulsant activity in maximal electroshock induced Kunming mouse assessed as epilepsy incidence at 5 mg/kg, ip measured after 30 mins; format: functional
[37] = tested on: Mus musculus; assay: Anticonvulsant activity in ip dosed maximal electroshock induced Kunming mouse assessed as suppression of hind legs rigidity measured after 30 mins; format: functional, organism-based
[38] = Cmax in Sprague-Dawley rat at 1 mg/kg, iv by LC/MS/MS analysis; format: ADME, organism-based; parameters: dose 1 mg/kg, route intravenous; details: in vivo
[39] = Ratio of drug uptake in Kunming mouse brain to plasma at 1.5 mg/kg, iv measured after 2 hrs by LC/MS/MS analysis; format: ADME, organism-based; details: read-out: BPR
[40] = Drug uptake in Kunming mouse brain at 15 mg/kg, ig measured after 5 mins by LC/MS/MS analysis; format: ADME, organism-based; details: po, read-out: Drug uptake
[41] = target: T1, Potassium voltage-gated channel subfamily KQT member 2; assay: Potency index, ratio of retigabine EC50 to compound EC50 for channel opening activity at KCNQ2 (unknown origin) expressed in CHO cells by atomic absorption spectrophotometry-based Rb+ flow assay; format: cell-based

SMILES: Cc1cc(N2CCc3cc(F)sc3C2)cc(C)c1NC(=O)CC(C)(C)C
- EC50 [1]: 2930 nM

SMILES: Cc1cc(N2CCn3cccc3C2)cc(C)c1NC(=O)CC(C)(C)C
- V1/2 [2]: 46.1 mV
- Activity [3]: 4.87%
- EC50 [1]: 34 nM
- Ratio [4]: 1.65

SMILES: Cc1cc(N2CCCCc3cc(Br)ccc32)cc(C)c1NC(=O)CC(C)(C)C
- EC50 [1]: 1080 nM

SMILES: Cc1csc2c1CN(c1cc(C)c(NC(=O)CC(C)(C)C)c(C)c1)CC2
- EC50 [1]: 300 nM

SMILES: Cc1ccc2c(c1)CCCCN2c1cc(C)c(NC(=O)CC(C)(C)C)c(C)c1
- EC50 [1]: 40 nM

SMILES: Cc1cc(N2CCc3sc(C#N)cc3C2)cc(C)c1NC(=O)CC(C)(C)C
- EC50 [1]: 290 nM

SMILES: Cc1cc2c(s1)CN(c1cc(C)c(NC(=O)CC(C)(C)C)c(C)c1)CC2
- EC50 [1]: 30 nM

SMILES: CCOC(=O)Nc1ccc(NCc2ccc(F)cc2)cc1N [EZOGABINE]
- V1/2 [2]: 40 mV
- Activity [5]: 0%
- Activity [6]: 15%
- Ratio [4]: 2.12

SMILES: Cc1cc(N2CCCCc3cc(Cl)ccc32)cc(C)c1NC(=O)CC(C)(C)C
- EC50 [1]: 140 nM

SMILES: Cc1cc(N2CCc3sccc3C2)cc(C)c1NC(=O)CC(C)(C)C
- concentration at 0.5 h [7]: 30 ng/g
- concentration at 2 h [8]: 4.96 ng/g
- Kp at 0.5 h [9]: 0.14
- concentration at 2 h [10]: 1.27 ng/g
- concentration at 2 h [11]: 7.85 ng/mL
- V1/2 [2]: 66.2 mV
- AUC(0-t) [12]: 687 ng·h/mL
- concentration at 5 min [13]: 201 ng/mL
- concentration at 5 min [14]: 771 ng/mL
- Activity [15]: 0%
- Kp at 5 min [16]: 0.18
- Activity [17]: 0%
- Activity [18]: 70%
- Activity [19]: 0%
- Kp at 5 min [20]: 0.12
- Activity [3]: 84.2%
- Tmax [21]: 1.8 min
- half-life [22]: 5.49 h
- concentration at 0.5 h [23]: 19 ng/g
- MRT last [24]: 2.17 h
- Vd [25]: 11.2 L/kg
- concentration at 2 h [26]: 52.9 ng/mL
- clearance [27]: 23.6 mL/min/kg
- Kp at 0.5 h [28]: 0.12
- concentration at 0.5 h [29]: 243 ng/mL
- concentration at 0.5 h [30]: 137 ng/mL
- EC50 [1]: 20 nM
- Activity [31]: 0%
- concentration at 5 min [32]: 140 ng/g
- Kp at 2 h [33]: 0.09
- Activity [34]: 20%
- Activity [35]: 90%
- Ratio [4]: 1.63
- Activity [36]: 20%
- EC50 [37]: 1.83 mg/kg
- Cmax [38]: 1060 ng/mL
- Kp at 2 h [39]: 0.16
- concentration at 5 min [40]: 25 ng/g
- Ratio EC50 [41]: 17

SMILES: Cc1cc(N2CCCCc3cc(F)ccc32)cc(C)c1NC(=O)CC(C)(C)C
- EC50 [1]: 250 nM

SMILES: Cc1cc(N2CCc3ccsc3C2)cc(C)c1NC(=O)CC(C)(C)C
- V1/2 [2]: 53.3 mV
- Activity [3]: 64.8%
- EC50 [1]: 20 nM
- Ratio [4]: 0.67

SMILES: Cc1cc(N2CCc3sc(C(F)(F)F)cc3C2)cc(C)c1NC(=O)CC(C)(C)C
- EC50 [1]: 120 nM
